Data set [1] addresses T1, F508del-CFTR (Homo sapiens, UniProt P13569, DEL508-508). Briefly: Membrane potential optical assay (F508del-CFTR correction). The format is cell-based. Particulars: NIH3T3 mouse fibroblasts stably expressing F508del, 18-24 hours. On the set-up: expressed in transfected cells. From the text:
Membrane Potential Optical Methods for Assaying Properties of F508del-CFTR Modulators
An optical assay was employed to measure changes in membrane potential to determine the CFTR modulator properties of compounds. The assay utilized fluorescent voltage sensing dyes to measure changes in membrane potential using a fluorescent plate reader (e.g., FLIPR III, Molecular Devices, Inc.) as a readout for increase in functional F508del in NIH 3T3 cells. The driving force for the response was the creation of a chloride ion gradient in conjunction with channel activation and concurrent with compound treatment by a single liquid addition step after the cells had previously been loaded with a voltage sensing dye.
NIH3T3 mouse fibroblasts stably expressing F508del were used for optical measurements of membrane potential. The cells were maintained at 37° C. in 5% CO2 and 90% humidity in Dulbecco's modified Eagle's medium supplemented with 2 mM glutamine, 10% fetal bovine serum, 1×NEAA, β-ME, 1× pen/strep, and 25 mM HEPES in 175 cm^2 culture flasks. […] The cells were then activated and treated with Compound I. After 18-24 hours, fluorescence from the voltage sensing dye in the cells was measured to assess changes in the membrane potential as a read out for increase in functional F508del CFTR in the NIH3T3 cells.

Data set [2] deals with T1, F508del-CFTR. Briefly: Ussing chamber assay, chloride transport in F508del/F508del-HBE cells. The format is cell-based. On the set-up: CF-HBE cells were isolated from patients homozygous for F508del (F508del/F508del-HBE); endogenous in cells; host or cells: primary F508del/F508del-HBE cells from bronchial tissue of CF patients. On the procedure:
Ussing chamber experiments were performed on polarized airway epithelial cells expressing F508del to further characterize the F508del modulators identified in the optical assay above. Non-CF and CF airway epithelia were isolated from bronchial tissue, cultured using methods well known in the art, and plated onto Costar® Snapwell™ filters that were precoated with NIH3T3-conditioned media. After four days the apical media was removed and the cells were grown at an air liquid interface for >14 days prior to use. […] CF-HBE cells were isolated from patients homozygous for F508del (F508del/F508del-HBE) or heterozygous for F508del and a mutation associated with minimal CF transmembrane conductance regulator (CFTR) function (MF) that is not expected to respond to Compound II, Compound III, Compound III-d, and the combination of Compound II and III, or Compound II and III-d (F508del/MF-HBE).
HBE cells grown on Costar® Snapwell™ cell culture inserts were mounted in an Ussing chamber (Physiologic Instruments, Inc., San Diego, Calif.), and the transepithelial resistance and short-circuit current in the presence of a basolateral to apical Cl^− gradient (ISC) were measured using a voltage-clamp system (Department of Bioengineering, University of Iowa, Iowa). Briefly, HBE cells were examined under voltage-clamp recording conditions (Vhold=0 mV) at 37° C. The basolateral solution contained (in mM) 145 NaCl, 0.83 K2HPO4, 3.3 KH2PO4, 1.2 MgCl2, 1.2 CaCl2, 10 Glucose, 10 HEPES (pH adjusted to 7.35 with NaOH) and the apical solution contained (in mM) 145 NaGluconate, 1.2 MgCl2, 1.2 CaCl2, 10 glucose, 10 HEPES (pH adjusted to 7.35 with NaOH).
Ussing Chamber Assay Procedure
A basolateral to apical membrane Cl^− concentration gradient was set up as follows. Normal Ringer's solution was used on the basolateral membrane, whereas apical NaCl was replaced by equimolar sodium gluconate (titrated to pH 7.4 with NaOH) to give a large Cl^− concentration gradient across the epithelium. […] Chloride current was measured to assess the increase in functional CFTR in the cell membrane. […]

Data set [3] in a line: Preclinical reproductive toxicology studies. It is filed as in vivo.
Data set [4] concerns the target T1, F508del-CFTR. Briefly: F508del-CFTR processing and trafficking (170 to 180 kDa band) in F508del/F508del-HBE cells. On the set-up: CF-HBE cells were isolated from patients homozygous for F508del (F508del/F508del-HBE); endogenous in cells; host or cells: primary F508del/F508del-HBE cells from bronchial tissue of CF patients. It is filed as cell-based. The text has this:
The CFTR protein delivered to the cell surface by Compound I alone or in combination with Compound II (Compound I/Compound II) was potentiated by Compound III.

Data set [5] can be described thus: Compound I monotherapy safety in healthy subjects. It is filed as in vivo, human. Particulars: multiple doses up to 400 mg qd for 10 days.
The target in the next data set is T2, CFTR (Homo sapiens, UniProt P13569, DEL508-508).
T2 construct: In human bronchial epithelial (HBE) cells studied in vitro; endogenous in cells; host or cells: human bronchial epithelial (HBE) cells
T2 sequence (P13569 with tags, fused parts or gaps DEL508-508): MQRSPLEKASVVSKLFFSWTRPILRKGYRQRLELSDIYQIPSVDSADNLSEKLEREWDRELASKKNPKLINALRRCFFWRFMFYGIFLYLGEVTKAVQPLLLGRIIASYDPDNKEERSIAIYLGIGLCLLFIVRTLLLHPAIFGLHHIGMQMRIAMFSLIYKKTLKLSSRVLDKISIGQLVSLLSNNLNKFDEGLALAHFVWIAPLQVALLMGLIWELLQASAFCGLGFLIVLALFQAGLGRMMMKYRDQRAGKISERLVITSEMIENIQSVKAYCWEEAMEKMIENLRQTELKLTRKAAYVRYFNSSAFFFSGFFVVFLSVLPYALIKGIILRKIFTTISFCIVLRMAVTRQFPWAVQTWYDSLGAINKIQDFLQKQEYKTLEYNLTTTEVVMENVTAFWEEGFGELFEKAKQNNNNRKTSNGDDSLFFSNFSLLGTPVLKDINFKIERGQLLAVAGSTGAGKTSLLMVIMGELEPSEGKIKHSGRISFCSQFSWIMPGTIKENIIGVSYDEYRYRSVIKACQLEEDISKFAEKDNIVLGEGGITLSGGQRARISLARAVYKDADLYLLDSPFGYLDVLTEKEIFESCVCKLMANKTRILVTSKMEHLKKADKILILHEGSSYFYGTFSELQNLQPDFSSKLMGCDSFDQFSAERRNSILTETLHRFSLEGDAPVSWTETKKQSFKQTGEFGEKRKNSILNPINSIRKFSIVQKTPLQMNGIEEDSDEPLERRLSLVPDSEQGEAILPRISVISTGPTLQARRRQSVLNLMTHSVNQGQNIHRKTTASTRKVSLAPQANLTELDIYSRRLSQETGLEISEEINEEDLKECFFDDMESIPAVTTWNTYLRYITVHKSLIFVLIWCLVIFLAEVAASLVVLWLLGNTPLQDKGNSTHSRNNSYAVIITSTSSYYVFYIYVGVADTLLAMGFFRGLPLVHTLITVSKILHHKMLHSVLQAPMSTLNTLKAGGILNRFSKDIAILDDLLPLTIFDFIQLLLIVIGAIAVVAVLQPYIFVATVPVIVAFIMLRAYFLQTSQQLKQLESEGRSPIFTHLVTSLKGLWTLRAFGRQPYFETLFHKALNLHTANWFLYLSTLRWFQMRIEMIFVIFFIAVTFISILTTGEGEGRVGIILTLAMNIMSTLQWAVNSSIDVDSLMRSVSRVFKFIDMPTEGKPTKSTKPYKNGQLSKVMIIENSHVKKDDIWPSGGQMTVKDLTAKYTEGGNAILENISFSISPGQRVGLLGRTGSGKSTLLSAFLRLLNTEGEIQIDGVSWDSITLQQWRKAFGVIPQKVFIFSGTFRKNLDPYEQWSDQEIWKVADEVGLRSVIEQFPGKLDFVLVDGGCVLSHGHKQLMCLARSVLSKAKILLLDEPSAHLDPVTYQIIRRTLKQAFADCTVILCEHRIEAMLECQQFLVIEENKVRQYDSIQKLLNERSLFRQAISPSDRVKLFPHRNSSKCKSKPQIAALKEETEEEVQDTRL
Briefly: CFTR chloride transport in human bronchial epithelial (HBE) cells in vitro (Example 7). It is filed as cell-based.

Entries after “also recorded” stand apart in the source; their conditions may differ. Bounds are passed on as bounds.

A word on the EC50: it is the concentration that produces a half-maximal response. A higher EC50 goes with a less potent agent.

T1 sequence (P13569 with tags, fused parts or gaps DEL508-508): as above

The compound `C[C@@H]1CN(c2nc(-n3ccc(OCCC4(C(F)(F)F)CC4)n3)ccc2C(=O)NS(=O)(=O)c2ccccc2)C(C)(C)C1` [Compound I, N-(benzenesulfonyl)-6-[3-[2-[1-(trifluoromethyl)cyclopropyl]ethoxy]pyrazol-1-yl]-2-[(4(S))-2,2,4-trimethylpyrrolidin-1-yl]pyridine-3-carboxamide] came in with an EC50 on F508del-CFTR [1] of under 3 µM. On F508del-CFTR [1] (read-out: % Efficacy relative to Compound II), the Emax was at least 100%. For the same compound, at F508del-CFTR [2], the chloride transport result is “enhanced chloride transport” and the “effect on chloride transport in relation to the effect of Compound II” value is “additive to the effect of Compound II”. In addition, the reproductive toxicology findings entry in data set [3] was “no adverse findings of note”. Further, the “steady-state levels, fold of untreated levels” value at F508del-CFTR [4] (F508del/F508del-HBE cells, 16 to 24 hours, 1 μM Compound I alone) was determined as 6.5 fold. In addition, at F508del-CFTR [4] (in vitro), the “processing and trafficking of F508del-CFTR” value was “improved the processing and trafficking of F508del-CFTR; also recorded: facilitates the processing and trafficking of F508del-CFTR”. The safety and tolerability result in data set [5] was “safe and well tolerated”.

For the compound `CC(C)(C)c1cc(C(C)(C)C)c(NC(=O)c2c[nH]c3ccccc3c2=O)cc1O` [Compound III, N-(5-hydroxy-2,4-di-tert-butyl-phenyl)-4-oxo-1H-quinoline-3-carboxamide, reference compound], the “potentiation of CFTR protein delivered to the cell surface by Compound I alone or with Compound II” value at CFTR is on record as “potentiated”. Also, at F508del-CFTR [2], the “potentiation of F508del-CFTR delivered to the cell surface by Compound I alone or with Compound II” value is recorded as “potentiated”.
